The record followed here is PubChem BioAssay (NCI).

What all share (assay): NCI anticancer screen, dose series, 48 h
Assay [1] deals with 786-0 renal.
In assay [2] the test system is DU-145 prostate.
The subject of assay [3] is HT29 colon.
The subject of assay [4] is IGROV1 ovarian.
Assay [5] relates to MDA-MB-231 breast.
The subject of assay [6] is NCI-H23 lung.
Assay [7] deals with NCI/ADR-RES ovarian.
In assay [8] the test system is OVCAR-4 ovarian.
Assay [9] relates to RXF 393 renal.
The test system of assay [10] is SK-MEL-2 melanoma.
Assay [11] concerns SK-MEL-5 melanoma.
Assay [12] relates to SN12C renal.
In assay [13] the test system is UACC-257 melanoma.

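Grown in 96-well plates, cells were treated for 48 hours with each compound at five concentrations. Insufficient inhibition: endpoint recorded as highest concentration tested. TGI: total growth inhibition.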

On to `CN=c1sc2c(n1C)C(=O)c1ccccc1C2=O`, for which the TGI in assay [1] was 20.7 µM; in assay [2] it was 3.12 µM; in assay [3], 10.4 µM; in [4] it was over 41.6 µM; in assay [5], 33.7 µM; in assay [6], 2.38 µM. The TGI is 16.4 µM in [7]; 11 µM in assay [8]; 9.01 µM in assay [9]; 6.14 µM in assay [10]; 6.85 µM in assay [11]; 3.05 µM in [12]. The TGI in [13] is 4.59 µM.

For the compound `CCOC(=O)c1c2c(n(-c3ccc(C)cc3)c1C)-c1ccccc1C(=O)C2(C(=O)OCC)C(=O)OCC`, the TGI is over 100 µM in [1]; over 100 µM in assay [2]; over 84.3 µM in assay [3]; over 87.7 µM in assay [4]; over 100 µM in assay [5]; over 100 µM in assay [6]. The TGI was over 85.3 µM in assay [7]; over 100 µM in assay [8]; 75.2 µM in assay [9]; over 88.5 µM in assay [10]; 50.4 µM in assay [11]; over 100 µM in [12]. The TGI in [13] was over 100 µM.

Regarding `COc1ccc(CCCCNCc2cccc(CNCCCCc3ccc(OC)cc3)c2)cc1`, the TGI was 4.51 µM in assay [1]; 3.54 µM in assay [2]; 3.16 µM in [3]; 3.32 µM in [4]; 3.6 µM in assay [5]; 3.37 µM in [6]. The TGI is 3.19 µM in [7]; 3.98 µM in assay [8]; 3.28 µM in [9]; 3.53 µM in assay [10]; 3.25 µM in assay [11]; 3.64 µM in assay [12]. The compound further came in with a TGI in [13] of over 19.7 µM.

As to `Cc1ccc(OCC2OC(n3cnc4c(Cl)nc(Nc5cc(Cl)cc(Cl)c5)nc43)CC2Oc2ccc(C)cc2)cc1` (stereo not given), the TGI in [1], in assay [2], in assay [3], in assay [4], in [5] and in assay [6] was over 100 µM in each case. Also, the TGI in assay [7] was over 100 µM; in assay [8], 59.2 µM; in assay [9], over 100 µM; in assay [10], over 100 µM; in assay [11] it was over 100 µM; in [12] it was over 100 µM. The TGI in assay [13] was over 100 µM.

As for `COC(=O)C1CCC(=O)N1CN(C(C)=O)c1cccc(O)c1` (stereo not given), the TGI in assay [1], in assay [2], in assay [3], in [4], in assay [5] and in assay [6] was over 100 µM each time. Moreover, the TGI in assay [7], in assay [8], in assay [9], in assay [10], in assay [11] and in assay [12] was over 100 µM each time. Moreover, in [13], the TGI was over 100 µM.

In the case of `C=CCC(CCC(C)=O)(C(=O)OCC)C(=O)OCC`, the TGI in assay [1], in [2], in assay [3], in assay [4], in [5] and in assay [6] was over 100 µM throughout. Also, the TGI in [7], in assay [8], in assay [9], in [10], in assay [11] and in [12] was over 100 µM each time. Also, in assay [13], the TGI is over 100 µM.

Take `Cc1[nH]n(-c2nc3c(c(=O)[nH]2)CCCC3)c(=O)c1CCO`: the TGI in assay [1], in [2], in assay [3], in assay [4], in assay [5] and in [6] was over 100 µM throughout. For the same compound, the TGI in assay [7], in [8], in assay [9], in assay [10], in assay [11] and in assay [12] was over 100 µM in each case. The compound further came in with a TGI in assay [13] of over 100 µM.

With `S=C1Cc2c(-c3ccccc3)cc(-c3cccc(Cl)c3)nc2-c2ccccc2N1`, the TGI in assay [1] came out at 2.21 µM; in assay [2], 38.9 µM; in [3], 11.5 µM; in [4], 4.56 µM; in assay [5], 5.66 µM; in assay [6] it was 21.2 µM. For the same compound, the TGI in assay [7] was 8.32 µM; in assay [8], 1.21 µM; in assay [9], 12.8 µM; in assay [10], 28.4 µM; in [11], over 81.7 µM; in assay [12], 16.7 µM. Further, the TGI in assay [13] was 35 µM.

For `Oc1c(N2CCCCC2)cc(-c2cc(N3CCCCC3)c(O)c3ccccc23)c2ccccc12`, the TGI in [1] was 45 µM; in [2], 49 µM; in assay [3] it was 55.5 µM; in assay [4] it was over 100 µM; in [5] it was over 100 µM; in assay [6], 79.7 µM. Also, the TGI was over 100 µM in assay [7]; 44.9 µM in [8]; 77.7 µM in assay [9]; 91.6 µM in assay [10]; 34.6 µM in [11]; over 100 µM in assay [12]. Also, in assay [13], the TGI turned out to be 28.5 µM.

Consider `COC(=O)c1cc2c(cc1Cl)Sc1nnc(Nc3ccccc3)n1S2(=O)=O`, for which the TGI in [1] amounted to 16.4 µM; in [2], 3.87 µM; in assay [3], 5.17 µM; in assay [4] it was 2.68 µM; in [5], 17.7 µM; in [6], 6.71 µM. The TGI in assay [7] was determined as 27.4 µM; in [8], 8.97 µM; in [9] it was 5.96 µM; in assay [10], 8.79 µM; in assay [11], 21.2 µM; in assay [12], 21.8 µM. The compound further returned a TGI in [13] of 21.7 µM.

As to `COc1ccc(OC)c2sc(N3C(=O)/C(=C/c4cccc(Oc5ccccc5)c4)N=C3c3ccccc3)nc12`, the TGI in assay [1], in assay [2], in assay [3], in assay [4], in assay [5] and in [6] was over 100 µM throughout. The TGI in assay [7], in [8], in assay [9], in assay [10], in assay [11] and in assay [12] was over 100 µM each time. In assay [13], this compound returned a TGI of over 100 µM.

As to `CCCCCCCCCCCCCCCCCCNc1ccn(C2OC(COP(=O)(O)OCC3OC(n4ccc(N)nc4=O)C(O)C3O)C(O)C2O)c(=O)n1` (stereo not given), the TGI in assay [1], in assay [2], in assay [3], in assay [4], in assay [5] and in assay [6] was over 100 µM throughout. Moreover, the TGI in assay [7], in assay [8], in assay [9], in assay [10], in assay [11] and in [12] was over 100 µM throughout. This compound also showed a TGI in assay [13] of over 100 µM.

For `NS(=O)(=O)c1nnc(NC(=S)NC(=O)Nc2ccc(Cl)c(Cl)c2)s1`, the TGI in assay [1] was over 100 µM; in assay [2], 53.9 µM; in [3], 71.9 µM; in assay [4], 46.7 µM; in assay [5], over 100 µM; in assay [6], 40.4 µM. The TGI in assay [7] worked out at 62.6 µM; in assay [8] it was 55.2 µM; in [9], 42.3 µM; in assay [10], 88 µM; in [11], 49 µM; in assay [12], 68.2 µM. Besides, the TGI in [13] was found to be 65.1 µM.

As to `Cc1c(C)c2c(c(N)c1C#N)C(=O)N(Cc1ccc(S(N)(=O)=O)cc1)C2=O`, the TGI is over 56.5 µM in [1]; over 75.8 µM in [2]; over 100 µM in assay [3]; over 59.7 µM in [4]; 73.4 µM in assay [5]; over 100 µM in assay [6]. Moreover, the TGI was over 100 µM in [7]; over 100 µM in assay [8]; 39.3 µM in assay [9]; over 100 µM in assay [10]; over 100 µM in assay [11]; over 100 µM in assay [12]. The same compound showed a TGI in [13] of over 100 µM.

Regarding `CN(NC1=NCCO1)c1ccc2ccccc2c1`, the TGI in assay [1], in [2], in [3], in assay [4], in assay [5] and in [6] was over 100 µM in each case. Also, the TGI in [7] was over 100 µM; in assay [8], over 100 µM; in assay [9], over 100 µM; in assay [10] it was 97.2 µM; in assay [11] it was 93.3 µM; in assay [12], over 100 µM. The compound further registered a TGI in [13] of over 100 µM.
